Measurements: ChEMBL document CHEMBL5620401, “Design, synthesis, and biological evaluation of novel spirocyclic compounds as potential anti-glioblastoma agents” (Eur J Med Chem, 2023)
The source made the active and inactive calls. The calls are words filed in the database; no cut-off is given here.

Legend:
U-251 [1] = assay: Antiproliferative activity against human U-251 cells assessed as cell viability measured after 72 hrs by MTT assay; assay type: functional, cell-based; settings: for IC50: U-251, 72 h
U-87 MG [2] = assay: Antiproliferative activity against human U87 cells assessed as cell viability measured after 72 hrs by MTT assay; assay type: functional, cell-based, U-87MG ATCC
[3] = Permeability coefficient of compound by lipid-PAMPA assay; assay type: ADME; settings: for Papp: read-out: Peff
U-87 MG [4] = assay: Antiproliferative activity against human U87 cells assessed as inhibition rate at 20 uM measured after 72 hrs by MTT assay relative to control; assay type: functional, U-87MG ATCC
U-251 [5] = assay: Antiproliferative activity against human U-251 cells assessed as inhibition rate at 20 uM measured after 72 hrs by MTT assay relative to control; assay type: functional
U-251 [6] = assay: Inhibition of colony formation in human U-251 cells; assay type: functional, cell-based
U-251 [7] = assay: Effect on ZBP1 protein expression in human U-251 cells at 1 to 5 uM measured after 48 hrs by Western blot analysis; assay type: functional, cell-based; settings: dose 1-5 µM
U-251 [8] = assay: Effect on phosphorylated-[…] protein expression in human U-251 cells at 1 to 5 uM measured after 48 hrs by Western blot analysis; assay type: functional, cell-based; settings: dose 1-5 µM
U-251 [9] = assay: Effect on RIPK3 protein expression in human U-251 cells at 1 to 5 uM measured after 48 hrs by Western blot analysis; assay type: functional, cell-based; settings: dose 1-5 µM
U-251 [10] = assay: Effect on RIPK1 protein expression in human U-251 cells at 1 to 5 uM measured after 48 hrs by Western blot analysis; assay type: functional, cell-based; settings: dose 1-5 µM
U-251 [11] = assay: Effect on caspase 8 protein expression in human U-251 cells at 1 to 5 uM measured after 48 hrs by Western blot analysis; assay type: functional, cell-based; settings: dose 1-5 µM
U-251 [12] = assay: Effect on GSDMD protein expression in human U-251 cells at 1 to 5 uM measured after 48 hrs by Western blot analysis; assay type: functional, cell-based; settings: dose 1-5 µM
U-251 [13] = assay: Induction of apoptosis in human U-251 cells assessed as increase in caspase-3 expression measured after 48 hrs by Western blot analysis; assay type: functional, cell-based; settings: dose 1-5 µM
U-251 [14] = assay: Induction of apoptosis in human U-251 cells assessed as increase in BCL2 homologous antagonist/killer (Bak) expression measured after 48 hrs by Western blot analysis; assay type: functional, cell-based; settings: dose 1-5 µM
U-251 [15] = assay: Induction of apoptosis in human U-251 cells assessed as increase in p53 expression measured after 48 hrs by Western blot analysis; assay type: functional, cell-based; settings: dose 1-5 µM
U-251 [16] = assay: Induction of apoptosis in human U-251 cells assessed as necrotic cells at 5 uM measured after 48 hrs by Annexin V/PI analysis (reference value: 0%); assay type: functional
U-251 [17] = assay: Induction of apoptosis in human U-251 cells assessed as late apoptotic cells at 5 uM measured after 48 hrs by Annexin V/PI analysis (reference value: 0.7%); assay type: functional
U-251 [18] = assay: Induction of apoptosis in human U-251 cells assessed as early apoptotic cells at 5 uM measured after 48 hrs by Annexin V/PI analysis (reference value: 3.1%); assay type: functional
U-251 [19] = assay: Induction of apoptosis in human U-251 cells assessed as viable cells at 5 uM measured after 48 hrs by Annexin V/PI analysis (reference value: 96.2%); assay type: functional; settings: read-out: Activity
U-251 [20] = assay: Induction of apoptosis in human U-251 cells assessed as necrotic cells at 2.5 uM measured after 48 hrs by Annexin V/PI analysis (reference value: 0%); assay type: functional
U-251 [21] = assay: Induction of apoptosis in human U-251 cells assessed as late apoptotic cells at 2.5 uM measured after 48 hrs by Annexin V/PI analysis (reference value: 0.7%); assay type: functional
U-251 [22] = assay: Induction of apoptosis in human U-251 cells assessed as early apoptotic cells at 2.5 uM measured after 48 hrs by Annexin V/PI analysis (reference value: 3.1%); assay type: functional
U-251 [23] = assay: Induction of apoptosis in human U-251 cells assessed as viable cells at 2.5 uM measured after 48 hrs by Annexin V/PI analysis (reference value: 96.2%); assay type: functional; settings: read-out: Activity
U-251 [24] = assay: Induction of apoptosis in human U-251 cells assessed as necrotic cells at 1 uM measured after 48 hrs by Annexin V/PI analysis (reference value: 0%); assay type: functional
U-251 [25] = assay: Induction of apoptosis in human U-251 cells assessed as late apoptotic cells at 1 uM measured after 48 hrs by Annexin V/PI analysis (reference value: 0.7%); assay type: functional
U-251 [26] = assay: Induction of apoptosis in human U-251 cells assessed as early apoptotic cells at 1 uM measured after 48 hrs by Annexin V/PI analysis (reference value: 3.1%); assay type: functional
U-251 [27] = assay: Induction of apoptosis in human U-251 cells assessed as viable cells at 1 uM measured after 48 hrs by Annexin V/PI analysis (reference value: 96.2%); assay type: functional; settings: read-out: Activity
U-251 [28] = assay: Decrease in SIRT1 gene expression in human U-251 cells at 5 uM measured after 48 hrs incubation by RT-qPCR analysis; assay type: functional, cell-based
U-251 [29] = assay: Decrease in SIRT1 protein expression in human U-251 cells at 1 to 5 uM by Western blot analysis; assay type: functional, cell-based; settings: dose 1-5 µM
U-251 [30] = assay: Increase in acetylated p53 level in human U-251 cells at 1 to 5 uM by Western blot analysis; assay type: functional, cell-based; settings: dose 1-5 µM
U-251 [31] = assay: Increase in BCL2 homologous antagonist/killer (Bak) expression human U-251 cells measured at 1 to 5 uM after 48 hrs by Western blot analysis; assay type: functional, cell-based; settings: dose 1-5 µM
U-251 [32] = assay: Increase in caspase 3 expression human U-251 cells measured at 1 to 5 uM after 48 hrs by Western blot analysis; assay type: functional, cell-based; settings: dose 1-5 µM
U-251 [33] = assay: Increase in acetylated p53 level in SIRT1 overexpressed human U-251 cells at 1 to 5 uM by Western blot analysis; assay type: functional, cell-based; settings: dose 1-5 µM
U-251 [34] = assay: Anti-GBM effect in human U-251 cells xenografted in BALB/c mouse model assessed as inhibition of tumor growth at 60 mg/kg, ip treated for 5 weeks; assay type: functional, organism-based
U-251 [35] = assay: Anti-GBM effect in human U-251 cells xenografted in BALB/c mouse model assessed as reduction in number of Ki67-positive cells in the tumor at 60 mg/kg, ip treated for 5 weeks by immunohistochemical staining analysis; assay type: functional, organism-based
[36] = Toxicity in BALB/c mouse xenografted with human U-251 cells assessed as toxicity at 60 mg/kg, ip treated for 5 weeks; assay type: organism-based; settings: in vivo, 840 h
[37] = Toxicity in BALB/c mouse xenografted with human U-251 cells assessed as body weight change at 60 mg/kg, ip treated for 5 weeks; assay type: organism-based; settings: in vivo, 840 h
[38] = Toxicity in BALB/c mouse xenografted with human U-251 cells assessed as pathological changes in heart at 60 mg/kg, ip treated for 5 weeks by hematoxylin and eosin staining based assay; assay type: organism-based; settings: in vivo, 840 h
[39] = Toxicity in BALB/c mouse xenografted with human U-251 cells assessed as pathological changes in liver at 60 mg/kg, ip treated for 5 weeks by hematoxylin and eosin staining based assay; assay type: organism-based; settings: in vivo, 840 h
[40] = Toxicity in BALB/c mouse xenografted with human U-251 cells assessed as pathological changes in spleen at 60 mg/kg, ip treated for 5 weeks by hematoxylin and eosin staining based assay; assay type: organism-based; settings: in vivo, 840 h
[41] = Toxicity in BALB/c mouse xenografted with human U-251 cells assessed as pathological changes in lung at 60 mg/kg, ip treated for 5 weeks by hematoxylin and eosin staining based assay; assay type: organism-based; settings: in vivo, 840 h
[42] = Toxicity in BALB/c mouse xenografted with human U-251 cells assessed as pathological changes in kidney at 60 mg/kg, ip treated for 5 weeks by hematoxylin and eosin staining based assay; assay type: organism-based; settings: in vivo, 840 h

## COc1cc(C(=O)CCc2ccc(C(=O)N3CCN(Cc4ccccc4)C34COC4)cc2)cc(OC)c1OC
U-251 [1]
  Activity: Active

## O=C(CCl)N1CCN(Cc2ccccc2)C12COC2
U-87 MG [2]
  IC50: 11.5 µM
U-251 [1]
  IC50: 8.6 µM
[3]
  Papp: 23.4 ×10⁻⁶ cm/s
U-87 MG [4]
  inhibition at 20 µM: 90.1%
U-251 [5]
  inhibition at 20 µM: 87.7%

## COc1ccc(C(=O)/C=C/c2ccc(C(=O)N3CCN(Cc4ccccc4)C34COC4)cc2)cc1
U-87 MG [2]
  IC50: 3.2 µM
U-251 [1]
  IC50: 2.4 µM

## COc1cc(C(=O)/C=C/c2cccc(C(=O)N3CCN(Cc4ccccc4)C34COC4)c2)cc(OC)c1OC
U-87 MG [2]
  IC50: 2.2 µM
U-251 [1]
  IC50: 1.1 µM

## O=C(/C=C/c1cccc(C(=O)N2CCN(Cc3ccccc3)C23COC3)c1)c1ccccc1
U-87 MG [2]
  IC50: 3.1 µM
U-251 [1]
  IC50: 2.1 µM

## O=C(/C=C/c1ccc(C(=O)N2CCN(Cc3ccccc3)C23COC3)cc1)c1ccccc1
U-87 MG [2]
  IC50: 5 µM
U-251 [1]
  IC50: 3 µM

## COc1ccc(C(=O)/C=C/c2cccc(C(=O)N3CCN(Cc4ccccc4)C34COC4)c2)cc1
U-87 MG [2]
  IC50: 2.6 µM
U-251 [1]
  IC50: 2 µM

## COc1cc(/C=C/C(=O)c2ccc(C(=O)N3CCN(Cc4ccccc4)C34COC4)s2)cc(OC)c1OC
U-87 MG [2]
  IC50: 2 µM
U-251 [1]
  IC50: 1.4 µM

## COc1ccc(C(=O)/C=C/c2ccccc2C(=O)N2CCN(Cc3ccccc3)C23COC3)cc1
U-87 MG [2]
  IC50: > 10 µM
U-251 [1]
  IC50: 11.6 µM

## Cn1nnc2c(C(N)=O)ncn2c1=O [TEMOZOLOMIDE]
U-87 MG [2]
  IC50: > 50 µM
U-251 [1]
  IC50: > 50 µM
[3]
  Peff: 0.002 10^-6 cm/s

## COc1ccc(C(=O)/C=C/c2ccc(C(=O)N3CCN(Cc4ccccc4)C34COC4)cc2)cc1OC
U-87 MG [2]
  IC50: 3.7 µM
U-251 [1]
  IC50: 1.8 µM

## O=C(/C=C/c1cccc(C(=O)N2CCN(Cc3ccccc3)C23COC3)c1)c1ccncc1
U-87 MG [2]
  IC50: 7.2 µM
U-251 [1]
  IC50: 6.2 µM

## O=C(/C=C/c1ccc(C(=O)N2CCN(Cc3ccccc3)C23COC3)s1)c1ccncc1
U-87 MG [2]
  IC50: 6.7 µM
U-251 [1]
  IC50: 6.6 µM

## COc1cc(/C=C/C(=O)c2ccc(C(=O)N3CCN(Cc4ccccc4)C34COC4)cc2)cc(OC)c1OC
U-87 MG [2]
  IC50: 3.7 µM
U-251 [1]
  IC50: 2.2 µM

## COc1cc(C(=O)/C=C/c2ccc(C(=O)N3CCN(Cc4ccccc4)C34COC4)cc2)cc(OC)c1OC
U-87 MG [2]
  IC50: 2.1 µM
U-251 [1]
  IC50: 0.9 µM
[3]
  Papp: 13.1 ×10⁻⁶ cm/s
U-251 [6]
  inhibition: Dose-Dependent Effect
U-251 [7]
  Activity: inactive
U-251 [8]
  Activity: inactive
U-251 [9]
  Activity: inactive
U-251 [10]
  Activity: inactive
U-251 [11]
  Activity: inactive
U-251 [12]
  Activity: inactive
U-251 [13]
  Activity: Dose-Dependent Effect
U-251 [14]
  Activity: Dose-Dependent Effect
U-251 [15]
  Activity: Dose-Dependent Effect
U-251 [16]
  Activity: 0.1%
U-251 [17]
  Activity: 67.5%
U-251 [18]
  Activity: 17.7%
U-251 [19]
  viability at 5 µM: 14.7%
U-251 [20]
  Activity: 0.2%
U-251 [21]
  Activity: 9.2%
U-251 [22]
  Activity: 16.4%
U-251 [23]
  viability at 2.5 µM: 74.2%
U-251 [24]
  Activity: 0.2%
U-251 [25]
  Activity: 8.2%
U-251 [26]
  Activity: 11.8%
U-251 [27]
  viability at 1 µM: 79.8%
U-251 [28]
  Activity: Active
U-251 [29]
  Activity: Active
U-251 [30]
  Activity: Active
U-251 [31]
  Activity: inactive
U-251 [32]
  Activity: inactive
U-251 [33]
  Activity: inactive
U-251 [34]
  Activity: Active
U-251 [35]
  Activity: Active
[36]
  Activity: Non-Toxic
[37]
  Activity: Non-Toxic
[38]
  Activity: Non-Toxic
[39]
  Activity: Non-Toxic
[40]
  Activity: Non-Toxic
[41]
  Activity: Non-Toxic
[42]
  Activity: Non-Toxic

## COc1ccc(C(=O)/C=C/c2ccccc2C(=O)N2CCN(Cc3ccccc3)C23COC3)cc1OC
U-87 MG [2]
  IC50: > 10 µM
U-251 [1]
  IC50: > 10 µM

## O=C(/C=C/c1ccc(C(=O)N2CCN(Cc3ccccc3)C23COC3)s1)c1ccsc1
U-87 MG [2]
  IC50: 4.1 µM
U-251 [1]
  IC50: 1.9 µM
